# Measurements taken from patent US12097202B2 (Kadmon Corporation, LLC, priority 2022, dated 2024).
# Where a name gives a salt, the structure may show the parent alone.
# Assay: Solubility of belumosudil mesylate
# Format: physicochemical
smiles,measurement,setting,value
"CC(C)NC(=O)COc1cccc(-c2nc(Nc3ccc4[nH]ncc4c3)c3ccccc3n2)c1 [Belumosudil mesylate, 2-{3-[4-(1H-indazol-5-ylamino)-2-quinazolinyl]phenoxy}-N-(propan-2-yl) acetamide methanesulfonate (1:1)]",solubility in DMSO,DMSO,soluble
same,solubility in methanol and DMF,methanol and DMF,slightly soluble
same,solubility in water,water,practically insoluble
